Source: ChEMBL document CHEMBL1132041, “Inhibition of human telomerase by PNA-cationic peptide conjugates” (Bioorg Med Chem Lett, 1999)

Molecular target: Telomerase reverse transcriptase (Homo sapiens, UniProt O14746)
Experiment: Inhibitory activity against human telomerase

Chain of Telomerase reverse transcriptase (O14746 whole entry): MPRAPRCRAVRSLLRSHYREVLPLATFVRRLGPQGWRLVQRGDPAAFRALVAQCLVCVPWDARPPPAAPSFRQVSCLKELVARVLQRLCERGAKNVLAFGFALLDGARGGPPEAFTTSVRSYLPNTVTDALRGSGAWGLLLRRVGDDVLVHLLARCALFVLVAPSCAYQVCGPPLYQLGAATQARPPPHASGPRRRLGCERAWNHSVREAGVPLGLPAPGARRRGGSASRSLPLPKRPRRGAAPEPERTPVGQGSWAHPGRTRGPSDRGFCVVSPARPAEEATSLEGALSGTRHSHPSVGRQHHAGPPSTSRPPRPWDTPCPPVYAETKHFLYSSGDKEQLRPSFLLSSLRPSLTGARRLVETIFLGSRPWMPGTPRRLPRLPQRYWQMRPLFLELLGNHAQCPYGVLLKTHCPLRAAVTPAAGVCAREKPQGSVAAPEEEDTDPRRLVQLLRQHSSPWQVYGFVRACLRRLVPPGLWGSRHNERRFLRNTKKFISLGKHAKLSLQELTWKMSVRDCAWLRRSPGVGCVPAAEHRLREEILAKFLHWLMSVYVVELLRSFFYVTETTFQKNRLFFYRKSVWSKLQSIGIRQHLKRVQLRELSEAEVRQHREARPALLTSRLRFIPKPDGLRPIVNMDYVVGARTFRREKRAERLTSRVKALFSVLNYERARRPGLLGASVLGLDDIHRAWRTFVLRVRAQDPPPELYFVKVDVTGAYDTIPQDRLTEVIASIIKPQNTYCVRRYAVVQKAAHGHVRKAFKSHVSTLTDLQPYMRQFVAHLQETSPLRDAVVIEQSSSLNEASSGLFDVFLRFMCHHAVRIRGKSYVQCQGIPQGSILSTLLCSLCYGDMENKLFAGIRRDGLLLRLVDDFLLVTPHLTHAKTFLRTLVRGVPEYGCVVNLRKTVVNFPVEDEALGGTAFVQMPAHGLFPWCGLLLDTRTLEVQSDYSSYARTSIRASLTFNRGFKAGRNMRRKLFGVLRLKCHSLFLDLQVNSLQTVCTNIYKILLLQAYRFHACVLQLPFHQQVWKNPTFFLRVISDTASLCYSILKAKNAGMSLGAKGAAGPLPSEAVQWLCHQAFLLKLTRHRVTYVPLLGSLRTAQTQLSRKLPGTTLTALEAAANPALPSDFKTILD

Compound	IC50
Cc1cn([C@H]2C[C@H](OP(=O)(O)OC[C@H]3O[C@@H](n4cnc5c(N)ncnc54)C[C@@H]3OP(=O)(O)OC[C@H]3O[C@@H](N4C=NC5C(=O)N=C(N)N=C54)C[C@@H]3OP(=O)(O)OC[C@H]3O[C@@H](N4C=NC5C(=O)N=C(N)N=C54)C[C@@H]3OP(=O)(O)OC[C@H]3O[C@@H](N4C=NC5C(=O)N=C(NC(=O)O)N=C54)C[C@@H]3O)[C@@H](COP(=O)(O)ON)O2)c(=O)[nH]c1=O (some centres undefined)	1160 nM
Cc1cn(C2CC(OP(=O)(O)OCC3OC(n4cnc5c(N)ncnc54)CC3OP(=O)(O)OCC3OC(n4cnc5c(=O)[nH]c(N)nc54)CC3OP(=O)(O)OCC3OC(n4cnc5c(=O)[nH]c(N)nc54)CC3OP(=O)(O)OCC3OC(n4cnc5c(=O)[nH]c(N)nc54)CC3O)C(COP(=O)(O)C(=O)[C@H](CS)NC(=O)[C@H](CCCCN)NC(=O)[C@H](CCCCN)NC(=O)[C@H](CCCCN)NC(=O)[C@H](CCCCN)NC(=O)[C@H](CCCCN)NC(=O)[C@H](C)N)O2)c(=O)[nH]c1=O (some centres undefined)	290 nM
Cc1cn(C2CC(OP(=O)(O)OCC3OC(n4cnc5c(N)ncnc54)CC3OP(=O)(O)OCC3OC(n4cnc5c(=O)[nH]c(N)nc54)CC3OP(=O)(O)OCC3OC(n4cnc5c(=O)[nH]c(N)nc54)CC3OP(=O)(O)OCC3OC(n4cnc5c(=O)[nH]c(N)nc54)CC3O)C(COP(=O)(O)C(=O)[C@H](CS)NC(=O)[C@H](CCCNC(=N)N)NC(=O)[C@H](CCCNC(=N)N)NC(=O)[C@H](CCCNC(=N)N)NC(=O)[C@H](CCCNC(=N)N)NC(=O)[C@H](CCCNC(=N)N)NC(=O)[C@H](C)N)O2)c(=O)[nH]c1=O (some centres undefined)	140 nM
Cc1cn(C2CC(OP(=O)(O)OCC3OC(n4cnc5c(N)ncnc54)CC3OP(=O)(O)OCC3OC(n4cnc5c(N)nc(N)nc54)CC3OP(=O)(O)OCC3OC(n4cnc5c(O)nc(N)nc54)CC3OP(=O)(O)OCC3OC(n4cnc5c(O)nc(N)nc54)CC3O)C(COP(=O)(O)C(=O)[C@H](CS)NC(=O)[C@H](CCCN)NC(=O)[C@H](CCCN)NC(=O)[C@H](CCCN)NC(=O)[C@H](CCCN)NC(=O)[C@H](CCCN)NC(=O)[C@H](C)N)O2)c(=O)[nH]c1=O (some centres undefined)	450 nM
